From US9840712B2, “CD133 aptamers for detection of cancer stem cells” (DEAKIN UNIVERSITY, priority 2012, dated 2017) come the findings set out here.

Read-outs that look alike come from different tables or passages of the source. In the oligonucleotide strings, read from the 5' end, every base follows the letter of its sugar. An asterisk marks phosphorothioate; unmarked linkages are phosphodiester. Other units and linkages are bracketed, terminal groups are in braces. A string of capitals states the bases alone. r = 2'-OH (RNA); f = 2'-fluoro

The subject of data set [1] is colon cancer cells (HT29). Conditions: 1 μM; for Tumoursphere formation after treatment: 3 days post-treatment.
Data set [2] relates to CD133-negative T98G cells. The experiment in a line: Aptamer dissociation constant by flow cytometry, T98G cells (specificity). Conditions: binding at 37° C. for 30 min. Further details: species or system human. The protocol:
(§1) Cells were harvested at 80% confluence with trypsin digestion and resuspended in washing buffer (DPBS with 2.5 mM MgCl2) and enumerated. Following centrifugation (1000×g for 5 min), the cell pellet was resuspended in binding buffer (DPBS supplemented with 5 mM MgCl2, 0.1 mg/ml tRNA, 0.1 mg/ml salmon sperm DNA) and diluted to 1×10^6/mL.
(§2) The dissociation constant (Kd) of successful 2′-fluoropyrimidine RNA aptamer species to native CD133 expressed on the cell surface was determined using flow cytometry. […] The mean fluorescence intensity (MFI) of the unselected library was subtracted from that of the aptamer-target cell to generate the MFI of specific binding. The Kd for each aptamer was determined by Scatchard analysis according to the equation: [Bound aptamer]/[aptamer]=−(1/Kd)×[bound aptamer]+([T]tot/Kd) where [T]tot represents the total target concentration. […]
(§3) To generate the truncated aptamers, the sense and antisense DNA oligonucleotides of desired sequences were synthesised. […] The binding affinities of these two aptamers and a negative control aptamer was determined using CD133 positive (HT-29 and Hep3B) and CD133 negative cell lines (T98G and HEK293T). […]

The target in data set [3] is T1, CD133 expressed on HT-29 cells (Homo sapiens, UniProt O43490).
T1 construct: determined using CD133 positive (HT-29 and Hep3B) and CD133 negative cell lines (T98G and HEK293T); host or cells: HT-29
T1 sequence (O43490 20-865): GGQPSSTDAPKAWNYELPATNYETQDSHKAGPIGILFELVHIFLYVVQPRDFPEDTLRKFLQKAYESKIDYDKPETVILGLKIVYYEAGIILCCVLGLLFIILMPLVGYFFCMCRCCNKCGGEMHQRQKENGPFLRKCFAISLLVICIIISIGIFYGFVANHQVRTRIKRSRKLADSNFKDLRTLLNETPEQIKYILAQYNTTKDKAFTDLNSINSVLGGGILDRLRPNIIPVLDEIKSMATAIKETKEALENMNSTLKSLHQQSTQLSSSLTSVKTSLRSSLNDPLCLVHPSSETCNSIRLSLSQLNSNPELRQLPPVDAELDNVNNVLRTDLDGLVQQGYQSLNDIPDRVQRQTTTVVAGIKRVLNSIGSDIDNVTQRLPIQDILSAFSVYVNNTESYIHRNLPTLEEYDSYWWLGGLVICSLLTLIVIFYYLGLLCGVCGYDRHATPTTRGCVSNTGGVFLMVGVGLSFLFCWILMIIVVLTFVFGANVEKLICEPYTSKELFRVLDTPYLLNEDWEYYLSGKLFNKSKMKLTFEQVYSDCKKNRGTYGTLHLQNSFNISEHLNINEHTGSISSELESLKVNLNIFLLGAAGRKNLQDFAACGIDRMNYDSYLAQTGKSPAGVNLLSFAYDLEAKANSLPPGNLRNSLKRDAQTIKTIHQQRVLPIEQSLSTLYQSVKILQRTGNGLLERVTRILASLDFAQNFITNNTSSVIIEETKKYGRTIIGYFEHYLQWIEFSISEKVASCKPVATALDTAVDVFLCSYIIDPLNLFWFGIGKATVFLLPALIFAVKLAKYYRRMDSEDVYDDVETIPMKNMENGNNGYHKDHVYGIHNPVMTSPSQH
The data set can be described thus: Aptamer dissociation constant by flow cytometry, HT-29 cells. Conditions: HT-29 cells (CD133-positive); binding at 37° C. for 30 min. The protocol: as §1, §2, §3

The target of data set [4] is T2, CD133 expressed on Hep3B cells (Homo sapiens, UniProt O43490).
T2 construct: determined using CD133 positive (HT-29 and Hep3B) and CD133 negative cell lines (T98G and HEK293T); host or cells: Hep3B
T2 sequence (O43490 20-865): T1 sequence (O43490 20-865)
The experiment in a line: Aptamer dissociation constant by flow cytometry, Hep3B cells. Conditions: Hep3B cells (CD133-positive); binding at 37° C. for 30 min. The protocol:
as §1, §2, §3

In data set [5] the test system is CD133-negative HEK293T cells. The data set can be described thus: Aptamer dissociation constant by flow cytometry, HEK293T cells (specificity). Conditions: binding at 37° C. for 30 min. Also noted: species or system human. The protocol: as §1, §2, §3

Consider `COc1cccc2c1C(=O)c1c(O)c3c(c(O)c1C2=O)C[C@@](O)(C(=O)CO)C[C@@H]3O[C@H]1C[C@H](N)[C@H](O)[C@H](C)O1` [Doxorubicin, doxorubicin], for which the “Tumoursphere formation after treatment” value in data set [1] (10 cells/well), in data set [1] (50 cells/well) and in data set [1] (100 cells/well) was 5/5 in each case. For the same molecule, the “inhibition of tumoursphere formation (in words)” value in data set [1] (100 cells/well) is on record as “no effect”.
Turning to “CD133-1-2-2: 15 mer 2′-F-pyrimidine RNA aptamer, 5′-CC CUC CUA CAU AGG G-3′ (SEQ ID NO:1) (fCfCfCfUfCfCfUrAfCrAfUrArGrGrG; further chemistry not given here)”, the Kd in data set [2] is 275 µM; in data set [3], 0.082 µM; in data set [4], 0.032 µM; in data set [5], 120 µM.
For “CD133-2-1: 19 mer 2′-F-pyrimidine RNA aptamer, 5′-CAGAACGUAUACUAUUCUG-3′ (SEQ ID NO:6) (fCrArGrArAfCrGfUrAfUrAfCfUrAfUfUfCfUrG; further chemistry not given here)” the same measures were 4.76 µM, 0.145 µM, 0.052 µM and 1740 µM.
